Measured values reported in US6680025B2, “Device and method for photoactivation” (Cerus Corporation, priority 1989, dated 2004).

How the values were obtained:
Taq polymerase = Taq polymerase (Thermus aquaticus, UniProt P19821); test: Taq primer extension of 71-mer after random addition of compound or photoproduct; assay type: biochemical; conditions: for extension of 71-mer irradiated with compound: AMIP 200 μg/ml, AMDMIP 200 μg/ml, irradiated 15 minutes CE-I at 25° C.
Source text: In this experiment, the ability of AMIP, AMDMIP and MIF to block replication of 71-mer is investigated by randomly adding each compound to the 71-mer. Of course, addition may only be random in the sense that one or more adducts may be formed with any one strand of nucleic acid. The actual placement of the isopsoralen may be governed by preferential binding at particular sites (e.g. A:T). In addition to blockage by random adducts, photoproducts of the various isopsoralens may be providing an inhibitory effect. No attempt to separate the effects of photoproduct from the effects of covalent adducts on the 71-mer template was made in this series of experiments.
In these experiments, the 71-mer template (10^−9 M) was primed with ^32P-SK-39 (10^−8) and extended with Taq polymerase in a total volume of […]. The dNTP concentration was 200 μM. In the control samples, the 71-mer, the primer, and the dNTPs were mixed in Taq buffer in a volume of 18 p1. These samples were initially denatured at 95° C. for 5 minutes, followed by equilibration at 55° C. for 3 minutes. Taq enzyme was then added (0.5 units) and the extension reaction was carried out for 5 minutes at 55° C. The reaction was stopped by making the solution 10 mM in EDTA. In another set of samples, the 71-mer in 10 μl was mixed with either AMIP (200 μg/ml), AMDMIP (200 μg/ml), or MIP (60 μg/ml). Half of these samples were irradiated for 15 minutes on the CE-I device at 25° C. The other half was kept in the dark as controls. These samples were then mixed with the primer and dNTPs as before, and were subjected to the same thermal profile and extension reactions as the samples that were described earlier. The results were examined by PAGE. The extended product bands were identified by autoradiography, excised and counted (data not shown). […]
71-mer was made up in Taq buffer. Samples were prepared as follows: 1) dark control samples were not subjected to activating light; 2) 10 μl samples of the 71-mer (2×10^−9 M) were irradiated in the presence of 200 μg/ml AMDMIP, and 3) 10 μl samples of a 200 μg/ml solution of AMDMIP were irradiated in the absence of the 71-mer target. All irradiations were carried out with the CE-I device at 25° C. After preparing the above samples, unirradiated AMDMIP was added to one set of the dark control samples. Another set of dark controls received irradiated AMDMIP. ^32P-SK-39 primer and dNTPs were then added to all samples and the volume was adjusted to 18 μl. These samples were denatured at 95° C. for 5 minutes, followed by equilibration at 55° C. for 3 minutes. Taq polymerase was then added and the extension reaction was carried out for 5 minutes. The reaction was stopped by bringing the samples to 10 mM in EDTA. The final concentrations of all reagents during the extension reactions were: […]

Taq I DNA polymerase = test: Primer extension on site-specific monoadducted 71-mer, Taq polymerase; assay type: biochemical, Thermus aquaticus; conditions: for Taq polymerase extension on 71-mer monoadduct template: 55° C., single extension
Protocol: In this experiment, monoadducted 71-mers (as well as unmodified 71-mers) were used in template-dependent enzymatic extension. AMIP, AMDMIP, and MIP 71-mer monoadducts were made as in Example 42. Extension was carried out as in Example 43 except that in this experiment, Taq I DNA polymerase, a thermostable DNA polymerase isolated from Thermus aquaticus (Stratagene, Inc., La Jolla, Calif.) was assessed for its ability to read past isopsoralens.
The reaction mixture was in 80 μl total volume and comprised 1×Taq buffer, 200 μM each of dNTP's, 0.05 units of Taq per μl of reaction volume; 1×10^−9 M in 71-mer MA; 1×10^−8 M in ^32P-labelled SK-39. Each reaction was set up with everything except Taq polymerase. The samples were initially heated to 95° C. for 5 mins, then incubated at 55° C. for 3 mins. The extension reaction was initiated by addition of Tas polymerase. At the indicated time points (0.5, 1.0, 5.0 mins), 20 μl of the reaction mix was removed to a tube containing 1 μl of 0.5 M EDTA to stop the reaction. All products were analyzed on a 20% polyacrylamide, 7 M urea gel followed by autoradiography.
This experiment investigated whether blocking of Tag polymerase by monoadducts is complete or whether monoadducts can be bypassed by the enzyme. In order to view the process of bypass syrthesis, it is necessary to cycle the extension reaction of the primer with the 71-mer templates. Cycling in this case consists of mixing the primer with the 71-mer template, adding Taq polymerase and appropriate reagents, extending, heating to induce strand separation, reannealing of the primer to the 71-mer template, extending again, and subsequent stand separation. This process can be repeated as necessary. During this process, only the complement of the 71-mer template is being synthesized. It is accumulating in a linear fashion with the number of thermal cycles (in contrast to PCR where both strands are being synthesized and accumulate geometrically).
The templates and reaction conditions were as in Example 44 above except that three samples were used for each monoadduct and each sample was tested under different conditions:
Samples (1): one sample for each monoadduct was used to carry out extension at 55° C. as in Example 43;
Samples (2): one sample for each monoadduct was used to carry out extension by the following series of steps: denaturing at 95° C.; incubating for 30 seconds at 55° C.; adding Taq polymerase for 3 minutes at 55° C.; cooling the reaction for 1 minute at 7° C.; stopping the reaction with EDTA for one minute at 95° C.
Samples (3): one sample for each monoadduct was used to carry out extension by repeating the following series of steps nine times: denaturing at 95° C.; incubating for 30 seconds at 55° C.; adding Taq polymerase for 3 minutes at 55° C.; cooling the reaction for 1 minute at 7° C. At the end, the reaction is stopped with EDTA for one minute at 95° C.
To investigate this question further, a new 5-MIP monoadducted 71-mer was prepared by repurification of the HPLC purified 5-MIP ronoadducted 15-mer by PAGE. In this way, more of the non-monoadducted 15-mer was removed prior to ligation. The purified 71-mer was then used as template in an extension experiment as described in Example 45. After 10 cycles, there was still evidence of extension product (FIG. 34).
Monoadducted 71-mer was constructed as described, but for HMT. Extension was carried out and analyzed as before on PAGE. […] Full length 71-mer is not made and a shorter strand corresponding to the position of the HMT adduct was made.

[1] = PAGE-repurified monoadducted 71-mer, after 10 cycles

Taq polymerase, sequence (P19821 whole entry): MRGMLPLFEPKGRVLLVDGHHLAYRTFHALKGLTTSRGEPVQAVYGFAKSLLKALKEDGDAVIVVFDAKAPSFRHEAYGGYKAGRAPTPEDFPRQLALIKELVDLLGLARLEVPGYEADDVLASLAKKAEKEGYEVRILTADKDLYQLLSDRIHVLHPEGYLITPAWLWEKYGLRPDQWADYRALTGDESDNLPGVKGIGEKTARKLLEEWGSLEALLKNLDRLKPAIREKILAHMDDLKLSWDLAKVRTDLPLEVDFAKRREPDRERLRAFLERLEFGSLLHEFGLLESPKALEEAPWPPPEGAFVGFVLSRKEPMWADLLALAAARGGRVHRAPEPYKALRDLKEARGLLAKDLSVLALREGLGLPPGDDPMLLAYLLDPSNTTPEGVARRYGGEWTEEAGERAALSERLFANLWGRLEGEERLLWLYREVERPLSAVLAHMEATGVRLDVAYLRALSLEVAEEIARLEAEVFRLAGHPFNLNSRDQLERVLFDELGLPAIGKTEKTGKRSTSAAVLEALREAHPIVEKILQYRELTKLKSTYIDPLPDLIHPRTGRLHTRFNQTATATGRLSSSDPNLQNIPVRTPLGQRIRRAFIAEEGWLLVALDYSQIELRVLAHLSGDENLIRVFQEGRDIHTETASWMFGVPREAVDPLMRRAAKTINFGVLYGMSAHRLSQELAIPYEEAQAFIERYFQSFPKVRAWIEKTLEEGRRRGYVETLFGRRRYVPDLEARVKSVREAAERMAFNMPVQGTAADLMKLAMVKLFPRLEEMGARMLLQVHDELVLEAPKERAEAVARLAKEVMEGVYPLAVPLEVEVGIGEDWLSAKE

Row | Compound | extension of 71-mer irradiated with compound (Taq polymerase; MIP 60 μg/ml) | amount of full length product versus control samples (Taq polymerase; MIP 60 μg/ml, irradiated 15 minutes CE-I) | Taq polymerase extension on 71-mer monoadduct template (Taq I DNA polymerase) | full length extension product as share of total extension products (Taq I DNA polymerase; [1]) [%] | truncated extension products as share of total (Taq I DNA polymerase; [1]) [%] | extension of 71-mer irradiated in the presence of AMDMIP (Taq polymerase; 200 μg/ml during irradiation, CE-I at 25° C.) | extension of 71-mer, dark control with unirradiated AMDMIP (Taq polymerase; AMDMIP 100 μg/ml final)
1 | Cc1cc2occc2c2oc(=O)ccc12 [MIP, 5-Methylisopsoralen] | some full length extension product and a minor truncated product | half of that observed with the control samples | stops at positions that are shorter than the full length 71-mer product | 2.3 | 97.7 | – | –
2 | Cc1oc2ccc3c(C)cc(=O)oc3c2c1CN [AMDMIP, 4′-Aminomethyl-4,5′-dimethylisopsoralen] | not extended at all | – | stops at positions that are shorter than the full length 71-mer product | – | – | no extension products at all | full length extension product
3 | NCc1cc2occc2c2oc(=O)ccc12 [AMIP, 5-Aminomethylisopsoralen] | not extended at all | – | stops at positions that are shorter than the full length 71-mer product | – | – | – | –
